Results: patent US20120225862A1, “HETEROARYL BENZAMIDES, COMPOSITIONS AND METHODS OF USE” (AUCKLAND UNIVSERVICES LIMITED, priority 2009, published 2012)

How the values were obtained:
p53 = assay: DNA damage response (Western blot p53, phospho-p53); format: cell-based, human; conditions: RCC4 and RCC4/VHL, 1.25, 2.5 and 5 μM
Experimental: (A) Clonogenic survival of RCC4 and RCC4/VHL treated with […] (5 μM)(*p<0.05). All error bars represent the standard error of the mean. […] RCC4 and RCC4/VHL cells were treated with increasing concentrations of compound 47 (1.25, 2.5 and 5 μM), a negative control (DMSO) and a positive control (4-(pyridin-4-yl)-N-(m-tolyl)thiazol-2-amine). Cells were lysed and probed for LC3, a marker of autophagy, or α-tubulin (loading control). […] RCC4 and RCC4/VHL cells were treated with vehicle, increasing concentrations of compound 47, and camptothecin. Cells were stained with DAPI and nuclear condensation was examined by fluorescence microscopy. (D) RCC4 cells were treated with compound 47 (5 μM) for the indicated time and stained with Annexin V and propidium iodide and subjected to FACS analysis. […] RCC4 and RCC4/VHL cells were subjected to increasing concentrations of compound 47 (1.25, 2.5, and 5 μM), a negative control (DMSO), and a positive control (doxorubicin). Cells were lysed and subjected to Western blot with the indicated antibodies.
However, RCC cells without VHL undergo a necrotic cell death in response to compound 47 as measured by the ability of the cells to exclude trypan blue, an indicator of cell membrane integrity.

Axl = target: T1, Axl (Homo sapiens, UniProt P30530); assay: In vitro kinase activity (Millipore KinaseProfiler): Axl; format: biochemical; conditions: no head or unit printed
T1 construct: purchased Millipore (KinaseProfiler service)
Experimental: (§1) All cells were grown in DMEM+10% FCS. ACHN and ACHN shVHL were a kind gift from George V. Thomas (UCLA). HIF overexpressing clones were described previously. Transfection of RNA oligos were performed with DnarmaFECT Reagent 1 (Dharmcon), according to manufacturer's directions. ON-TARGETplus SMART pools against HIF-1β/ARNT were purchased from Dharmacon. Glut1 was detected with anti-GLUT1 antibody from NeoMarkers/LabVision/Fisher. Pyruvate/lactate levels and hexokinase activity were both measured by fluorometric assay (BioVision and Sigma-Aldrich, respectively). ATP levels were measured by bioluminescence assay (ATP Determination Kit from Molecular Probes/Invitrogen). In vitro kinase activities were performed by Millipore KinaseProfiler. Affi-Gel 10 (BioRad) activated affinity media was coupled to analogs to generate immobilized affinity linkers.
(§2) We next wanted to investigate the differential glucose uptake between RCCs with and without VHL treated with compound 47 that subsequently lead to the selective death of VHL-deficient cells. We first examined the message levels of the two main glucose transporters, GLUT1 and GLUT2 by quantitative real-time PCR. GLUT1 is an inducible, high-affinity glucose transporter, while GLUT2 is the glucose transporter responsible for basal glucose uptake. […] Cells deficient in VHL had very low levels of GLUT2 that could barely be detected (FIG. 3J). […]

[1] = tested on: RCC4 cells transfected with siRNA to HIF-1β; assay: 3H-2-deoxyglucose uptake, RCC4 with siRNA to HIF-1β; format: cell-based, human; conditions: 5 μM, FIG. 3E
Experimental: as §1
One hundred thousand cells were plated per well in a six-well plate. The next day, cells were treated with the indicated concentration of drug and incubated for the indicated time. […] Glucose uptake was quantified with a scintillation counter.
To further investigate the relationship between HIF and compound 47 toxicity, we silenced HIF-1β in RCC4 cells and assessed its affect on glucose uptake. […]

IRAK1 = target: T2, IRAK1 (Homo sapiens, UniProt P51617); assay: In vitro kinase activity (Millipore KinaseProfiler): IRAK1; format: biochemical; conditions: no head or unit printed
T2 construct: purchased Millipore (KinaseProfiler service)
Experimental: as §1, §2

RCC4 = assay: Clonogenic survival, RCC4; format: cell-based, human
Experimental: Three hundred cells were plated into 60-mm tissue culture dishes in DMEM. The next day, cells were treated with vehicle or drug and were further incubated for an additional 10 days. […] The stain was removed and plates were washed in deionized water. Colonies were quantified. All conditions were measured in triplicate and all experiments were performed in triplicate.
For 2,3-bis[2-methoxy-4-nitro-5-sulfophenyl]-2H-tetrazolium-5-carboxanilide (XTT) assays, five thousand cells were plated in 96-well plates. The next day, vehicle (DMSO) or drug was added by serial dilution. […] Metabolism of XTT was quantified by measuring the absorbance at 450 nm. IC50s were calculated using linear interpolation. For clonogenic survival assays, three hundred cells were plated per 60 mm tissue culture dish. The cells were allowed to attach overnight and then treated with vehicle or drug for […]. […] All conditions were measured in triplicate and each experiment was done in duplicate or triplicate. To determine necrosis, cells were treated with drug for a given time point. Media and cells were collected, centrifugated, and resuspended in 0.4% trypan blue (Invitrogen). Live and dead cells were counted on a hematocytometer.

T2 sequence (P51617 whole entry, species assumed): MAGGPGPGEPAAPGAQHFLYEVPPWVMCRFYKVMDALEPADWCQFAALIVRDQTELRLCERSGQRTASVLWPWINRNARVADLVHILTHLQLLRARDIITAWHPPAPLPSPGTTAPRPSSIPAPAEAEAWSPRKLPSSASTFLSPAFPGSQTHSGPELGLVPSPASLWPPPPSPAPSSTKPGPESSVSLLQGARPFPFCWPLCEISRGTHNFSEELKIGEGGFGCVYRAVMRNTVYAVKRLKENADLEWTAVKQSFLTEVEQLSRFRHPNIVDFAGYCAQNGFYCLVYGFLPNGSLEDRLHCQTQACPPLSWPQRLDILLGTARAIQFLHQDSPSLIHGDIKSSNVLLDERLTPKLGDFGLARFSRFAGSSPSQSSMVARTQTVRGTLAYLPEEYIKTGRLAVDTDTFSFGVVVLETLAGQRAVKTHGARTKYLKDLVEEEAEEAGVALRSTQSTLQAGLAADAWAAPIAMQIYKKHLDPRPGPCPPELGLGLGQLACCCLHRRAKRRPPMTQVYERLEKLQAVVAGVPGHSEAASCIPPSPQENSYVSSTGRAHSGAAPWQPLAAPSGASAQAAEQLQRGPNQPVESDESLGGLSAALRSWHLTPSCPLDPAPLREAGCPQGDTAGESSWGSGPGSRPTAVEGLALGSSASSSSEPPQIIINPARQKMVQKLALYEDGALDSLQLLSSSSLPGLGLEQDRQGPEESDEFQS
T1 sequence (P30530 26-894, species assumed): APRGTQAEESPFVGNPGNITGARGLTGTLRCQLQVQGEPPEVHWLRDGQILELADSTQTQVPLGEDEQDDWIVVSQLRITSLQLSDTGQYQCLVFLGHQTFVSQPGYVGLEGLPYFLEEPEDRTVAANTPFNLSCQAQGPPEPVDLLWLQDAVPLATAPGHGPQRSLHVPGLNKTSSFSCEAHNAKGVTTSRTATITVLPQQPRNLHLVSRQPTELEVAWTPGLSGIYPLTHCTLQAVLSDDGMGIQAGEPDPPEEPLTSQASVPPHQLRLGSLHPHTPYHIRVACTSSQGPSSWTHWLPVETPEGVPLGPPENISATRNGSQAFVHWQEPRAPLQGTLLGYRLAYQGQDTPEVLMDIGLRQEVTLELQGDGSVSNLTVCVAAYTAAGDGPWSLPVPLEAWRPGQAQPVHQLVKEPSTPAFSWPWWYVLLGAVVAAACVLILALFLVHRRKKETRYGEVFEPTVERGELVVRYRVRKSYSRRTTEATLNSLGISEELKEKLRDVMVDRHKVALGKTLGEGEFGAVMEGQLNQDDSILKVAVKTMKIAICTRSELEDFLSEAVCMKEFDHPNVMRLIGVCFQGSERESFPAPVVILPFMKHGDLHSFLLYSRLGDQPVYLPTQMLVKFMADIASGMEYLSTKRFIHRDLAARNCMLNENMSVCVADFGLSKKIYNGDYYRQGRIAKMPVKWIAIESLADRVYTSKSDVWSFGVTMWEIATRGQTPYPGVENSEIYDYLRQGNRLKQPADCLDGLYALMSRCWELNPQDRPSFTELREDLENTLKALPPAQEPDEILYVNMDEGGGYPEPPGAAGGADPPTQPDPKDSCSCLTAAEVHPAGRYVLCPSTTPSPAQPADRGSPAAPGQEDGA

SMILES: CC(C)(C)c1ccc(S(=O)(=O)NCc2ccc(C(=O)Nc3cccnc3)cc2)cc1 [Example 38, 4-((4-tert-Butylphenylsulfonamido)methyl)-N-(pyridin-3-yl)benzamide]
- total p53 or phospho-p53 levels (DNA damage response) (p53): did not increase
- Axl kinase activity (Axl): 87
- glucose uptake in RCC4 with HIF-1β silenced [1]: insensitive
- IRAK1 kinase activity (IRAK1): 105%
- reversibility of induced cell death (RCC4; 5 μM, media replaced after indicated time, total 10 days): irreversible after three days
- clonogenic survival of RCC4 (RCC4; RCC4 (VHL-deficient), 5 μM, 10 days): specifically toxic to RCC4 cells
- RCC4 cells killed following treatment (RCC4; compound 5 μM, FIG. 2D): Approximately 80%
